This note sets out measurements from patent US20120270935A1, “FORMULATIONS” (priority 2009, published 2012).

Usually MBC stands for the smallest concentration meeting the test's criterion for killing. Low readings indicate greater bactericidal potency, high ones weaker bactericidal potency. In general, MIC refers to the lowest concentration found to suppress growth. Low readings indicate greater potency, high ones weaker potency.

For experiment [1], the system named is P. acnes NCTC 737. Briefly: Minimum bactericidal concentration (MBC) assay. Type of experiment: cell-based, Propionibacterium acnes. The note with it: compound in DMSO; triplicate. How it is done: (§1) The first test micro-organism used was Propionibacterium acnes NCTC 737. This is a propionibacterial strain and is the type strain of the […]; it is fully susceptible to antibiotics.
(§2) The propionibacteria were cultured and maintained on Wilkins-Chalgren Anaerobe Medium (agar and broth) at pH 6.0; all cultures were incubated anaerobically at 37° C. for 72 hours.
(§3) This assay, normally carried out after an MIC assay, determines the minimum concentration of a compound that is lethal to the micro-organism being tested.
These samples were then individually sub-cultured on antibiotic-free agar medium, under the incubation conditions described above. Following incubation they were examined visually for microbial growth.
DDA assays, as described above, were carried out using as the test formulation the gel prepared in Example 2B above. Also tested was the Example 2B gel minus the Klucel™ thickener, which was also subjected to MIC and MBC assays. For the DDAs, which were performed in triplicate, 100 μl of the relevant formulation was loaded onto each disc, and zones of inhibition were recorded after 3 days' anaerobic incubation at 37° C. The MIC and MBC tests were performed in duplicate and the results recorded after 3 days and 7 days respectively, post-subculture onto drug-free medium.
The compounds copper (II) usnate (Just for Today Ltd), sodium usnate (Yick-Vic Chemicals) and usnic acid (Sigma-Aldrich) were tested against P. acnes NCTC 737, using MIC, MBC and DDA assays as described above. For copper usnate and usnic acid, supplemented DDA assays were also carried out. DMSO was used as the solvent for all three test compounds. For the DDAs, 200 μg of the relevant test compound was loaded onto each disc. The MIC and MBC assays were conducted in triplicate, as were the DDAs for copper usnate.

Experiment [2] concerns P. acnes NCTC 737. Briefly: Disc diffusion assay (DDA). The format is cell-based, Propionibacterium acnes. To be noted: 200 μg compound per disc; DMSO. The protocol:
as §1, §2
This is an internationally recognised standard method for qualitatively assessing the antimicrobial activity of a compound.
A sterile paper disc was impregnated with a sample of the test compound in a suitable solvent and 30 minutes allowed for the solvents to evaporate (where possible). The disc was then placed on an agar plate onto which the test micro-organism had been inoculated. The plate was then incubated under the conditions described above, following which it was examined visually for signs of microbial growth. If the test compound had antimicrobial activity, a circular zone of no growth would be obtained around the disc. The diameter of this zone of “inhibition” was measured using a ProtoCOL™ automated zone sizer (Synbiosis, Cambridge, UK). In general, a greater diameter and/or area of the zone of inhibition indicates a greater antimicrobial activity in the relevant test compound, although other factors such as test compound mobility through the agar gel may also influence the result.
(§4) DDA assays, as described above, were carried out using as the test formulation the gel prepared in Example 2B above. Also tested was the Example 2B gel minus the Klucel™ thickener, which was also subjected to MIC and MBC assays. For the DDAs, which were performed in triplicate, 100 μl of the relevant formulation was loaded onto each disc, and zones of inhibition were recorded after 3 days' anaerobic incubation at 37° C. The MIC and MBC tests were performed in duplicate and the results recorded after 3 days and 7 days respectively, post-subculture onto drug-free medium. […]
In general terms: In agar diffusion tests the substance spreads into inoculated agar from a disc or well.

In experiment [3] the test system is C. striatum NCTC 764. Briefly: MIC assay. The note with it: triplicate. Type of experiment: cell-based, Corynebacterium striatum. The text has this: (§5) (a) staphylococci. The Staphylococcus aureus strain used was ATCC 29213. S. aureus and other staphylococci are common causes of a wide range of skin, skin structure and wound infections; S. aureus is also known to exacerbate eczema. The ATCC 29213 strain is known to be susceptible to beta-lactam antibiotics such as methicillin. The Staphylococcus epidermidis strain used was NCTC 11047. Staph. epidermidis forms part of the resident flora of skin and is an opportunistic pathogen which can cause biofilms to grow for instance on plastic surgical implants such as catheters. Unless otherwise stated, the staphylococci were cultured and maintained on Mueller-Hinton Medium (agar and broth) at pH 7.2; cultures were incubated aerobically at 37° C. for 19-20 hours, at pH 7 (±0.2). (b) C. striatum NCTC 764. Corynebacterium striatum is closely related to organisms (aerobic diphtheroids of the genus Corynebacterium) that cause body odour. It was cultured and maintained on Mueller-Hinton medium (agar and broth). All cultures were incubated aerobically at 37° C. for 72 hours, at pH 7 (±0.2). (c) streptococci. The strains tested were S. mutans ATCC 25175 and S. pyogenes ATCC 12344. S. mutans is a Gram-positive, microaerophilic bacterium which plays a significant role in dental caries and in infective endocarditis. Streptococcus pyogenes is associated with skin, soft tissue, burn and wound infections. S. mutans was cultured and maintained on Wilkins-Chalgren Anaerobe medium+1 g/L glucose (agar and broth); it was incubated in air at 37° C. for 48 hours, at pH 7 (±0.2) with 5% carbon dioxide. […]
(§6) This is a standard international method for quantitatively assessing the antimicrobial activity of a compound in a liquid medium. […]
(§7) The wells were inoculated with a liquid suspension of freshly grown micro-organism and incubated under the conditions described above. […] The MIC value was recorded as the lowest concentration of test compound required to inhibit microbial growth, ie the lowest concentration for which the liquid in the well remained clear. […]

Experiment [4] relates to C. striatum NCTC 764. Briefly: MBC assay. The format is cell-based, Corynebacterium striatum. To be noted: triplicate.
From the text: (§8) (a) staphylococci. The Staphylococcus aureus strain used was ATCC 29213. S. aureus and other staphylococci are common causes of a wide range of skin, skin structure and wound infections; S. aureus is also known to exacerbate eczema. The ATCC 29213 strain is known to be susceptible to beta-lactam antibiotics such as methicillin. The Staphylococcus epidermidis strain used was NCTC 11047. Staph. epidermidis forms part of the resident flora of skin and is an opportunistic pathogen which can cause biofilms to grow for instance on plastic surgical implants such as catheters. Unless otherwise stated, the staphylococci were cultured and maintained on Mueller-Hinton Medium (agar and broth) at pH 7.2; cultures were incubated aerobically at 37° C. for 19-20 hours, at pH 7 (±0.2). (b) C. striatum NCTC 764. Corynebacterium striatum is closely related to organisms (aerobic diphtheroids of the genus Corynebacterium) that cause body odour. It was cultured and maintained on Mueller-Hinton medium (agar and broth). All cultures were incubated aerobically at 37° C. for 72 hours, at pH 7 (±0.2). (c) streptococci. The strains tested were S. mutans ATCC 25175 and S. pyogenes ATCC 12344. S. mutans is a Gram-positive, microaerophilic bacterium which plays a significant role in dental caries and in infective endocarditis. Streptococcus pyogenes is associated with skin, soft tissue, burn and wound infections. S. mutans was cultured and maintained on Wilkins-Chalgren Anaerobe medium+1 g/L glucose (agar and broth); it was incubated in air at 37° C. for 48 hours, at pH 7 (±0.2) with 5% carbon dioxide. S. pyogenes was cultured and maintained on Mueller-Hinton medium (broth and agar) and was incubated under the same conditions as S. mutans.
as §3
These samples were then individually sub-cultured on antibiotic-free agar medium, under the incubation conditions described above. Following incubation they were examined visually for microbial growth. […]

For experiment [5], the system named is P. acnes NCTC 737. The experiment is described as follows: Minimum inhibitory concentration (MIC) assay, broth microtitre. The format is cell-based, Propionibacterium acnes. The note with it: compound in DMSO; triplicate. How it is done: as §1, §2
This is a standard international method for quantitatively assessing the antimicrobial activity of a compound in a liquid medium. The method used a sterile 96-well microtitre plate, capable of holding about 200 μl of liquid per well. The wells contained liquid culture medium and ranges of decreasing concentrations of the relevant test compound in doubling dilutions (eg 1000, 500, 250, 125 . . . μg/ml, etc. down to 0.49 μg/ml). The culture medium was as described above.
The wells were inoculated with a liquid suspension of freshly grown micro-organism and incubated under the conditions described above. After incubation, the microtitre plate was examined visually (with the aid of a light box) for cloudiness in each well, which would indicate microbial growth. The MIC value was recorded as the lowest concentration of test compound required to inhibit microbial growth, ie the lowest concentration for which the liquid in the well remained clear.
The assays included both negative (culture medium with no micro-organisms) and positive (culture medium plus diluting solvent plus micro-organism) controls.
as §4

Experiment [6] has as its system S. aureus ATCC 29213. The experiment is described as follows: Disc diffusion assay (DDA). The format is cell-based, Staphylococcus aureus. The note with it: 200 μg per disc; Mueller-Hinton agar pH 7.0; overnight at 37° C. in air.
From the text: as §5, with “infections.” for “infections. S. mutans was cultured and maintained on Wilkins-Chalgren Anaerobe medium+1 g/L glucose (agar and broth); it was incubated in air at 37° C. for 48 hours, at pH 7 (±0.2) with 5% carbon dioxide.”
(§9) A sterile paper disc was impregnated with a sample of the test compound in a suitable solvent and 30 minutes allowed for the solvents to evaporate (where possible). […] The diameter of this zone of “inhibition” was measured using a ProtoCOL™ automated zone sizer (Synbiosis, Cambridge, UK). […]
(§10) Example 8 was repeated (except for the supplemented DDA assays), using S. aureus ATCC 29213 as the test organism. […] In the DDA assays, 200 μg is of each compound was loaded onto each disc: the culture medium was Mueller-Hinton agar at pH 7.0, and results were recorded after overnight incubation at 37° C. in air. […]

For experiment [7], the system named is C. striatum NCTC 764. The experiment is described as follows: Disc diffusion assay (DDA). Type of experiment: cell-based, Corynebacterium striatum. The note with it: 200 μg per disc; single plates.
From the text: as §5, with “streptococci.” for “streptococci. The strains tested were S. mutans ATCC 25175 and S. pyogenes ATCC 12344. S. mutans is a Gram-positive, microaerophilic bacterium which plays a significant role in dental caries and in infective endocarditis. Streptococcus pyogenes is associated with skin, soft tissue, burn and wound infections. S. mutans was cultured and maintained on Wilkins-Chalgren Anaerobe medium+1 g/L glucose (agar and broth); it was incubated in air at 37° C. for 48 hours, at pH 7 (±0.2) with 5% carbon dioxide.”
as §9

Experiment [8] deals with S. aureus ATCC 29213. Briefly: MBC assay. The format is cell-based, Staphylococcus aureus. The note with it: Mueller-Hinton broth pH 7.0.
From the text: as §8, with “mutans. […]” for “mutans.”
as §10

In experiment [9] the test system is S. aureus ATCC 29213. Briefly: MIC assay. The format is cell-based, Staphylococcus aureus. To be noted: Mueller-Hinton broth pH 7.0.
From the text: as §5, with “endocarditis.” for “endocarditis. Streptococcus pyogenes is associated with skin, soft tissue, burn and wound infections. S. mutans was cultured and maintained on Wilkins-Chalgren Anaerobe medium+1 g/L glucose (agar and broth); it was incubated in air at 37° C. for 48 hours, at pH 7 (±0.2) with 5% carbon dioxide.”
as §6, §7, §10

On to `CC(=O)C1=C([O-])C=C2Oc3c(C(C)=O)c(O)c(C)c(O)c3[C@]2(C)C1=O.[Na+]` [Sodium usnate, sodium usnate], for which the results for the MBC in [1], in [4] and in experiment [8] were 0.98 µg/mL, 125 µg/mL and 250 µg/mL, respectively. Further, the “DDA zone diameter, unsupplemented medium” value in experiment [2] is 57.9 mm. In addition, the MIC in [3] turned out to be 3.9 µg/mL; in experiment [5], 0.49 µg/mL; in [9], 7.8 µg/mL. The DDA zone diameter was found to be 15.0 mm in [6] and 20.0 mm in [7].
